Data published in article PMC9919490, “Synthesis and Biological Evaluation of Novel Dispiro-Indolinones with Anticancer Activity” (Molecules, 2023).

Tests used:
Type in all cases: cell-based
LNCaP cells = test: MTT cytotoxicity assay, LNCaP (p53 pos); details: 48 h
Method: (§1) The synthesized compounds were tested for their ability to block the proliferation of the selected model cell lines: LNCaP (p53+), PC3 (p53-), HCT^wt (p53+), and HCT^−/− (p53-) cells. The assay was carried out using the standard MTT (3-(4,5-dimethylthiazol-2-yl)2,5-diphenyl tetrazolium bromide) assay based on the modified approach reported by Ferrari and colleagues. […] Differences in IC50 values against these cell lines were used to assess the selectivity of the compounds.
(§2) Model cell lines were purchased from the in stock collection of the N.N. Blokhin Russian Cancer Research Center (RAMS). Cells were accurately maintained in the recommended media, supplemented with 10% heat-inactivated FBS (Invitrogen) and 2 mmol/L L-glutamine (Invitrogen).
(§3) First, 4000 cells per well were plated out in 140 µL of DMEM (with 10% FBS) in 96-well plates and incubated in 5% CO2 for 24 h at 37 °C without treatment. […] The cells were treated for 48 h with […] (eight dilutions) concentrations of the substances (each in triplicate) or doxorubicin (0.3 nM–600 nM, eight dilutions) as a control substance. After the incubation, 15 µL of MTT solution in PBS (5 mg/mL) was added, and the cells were incubated for 2 h, followed by removal of the media and addition of 120 µL of DMSO. […] Cell survival rates were determined by the comparison of optical density with the corresponding untreated control cell culture. Dose-dependent curves and the corresponding IC50 values were calculated using “GraphPad Prism 6” software (GraphPad Software, Inc., San Diego, CA, USA).

HCT^wt cells = test: MTT cytotoxicity assay, HCT^wt (p53 pos); details: 48 h
Method: as §1, §2, §3

HCT^−/− cells = test: MTT cytotoxicity assay, HCT^−/− (p53 neg); details: 48 h
Method: as §1, §2, §3

PC3 cells = test: MTT cytotoxicity assay, PC3 (p53 neg)
Method: as §1, §2, §3

Row | Compound | IC50 (LNCaP cells) | IC50 (HCT^wt cells) | IC50 (HCT^−/− cells) | IC50 (PC3 cells; 48 h) | IC50 (LNCaP cells; Homo sapiens, LNCaP) | IC50 (PC3 cells; Homo sapiens, PC-3, 48 h)
1 | COc1ccc(N2C(=O)[C@]3(NC2=S)[C@@H](c2cccc(Cl)c2)CN(C)[C@@]32C(=O)Nc3ccccc32)cc1 (racemic) [Compound 32] | > 100 µM | > 100 µM | > 100 µM | > 100 µM |  | 
2 | C#CCOc1ccc(N2C(=O)[C@]3(NC2=S)[C@@H](c2ccc(Cl)cc2)CN(C)[C@@]32C(=O)Nc3ccccc32)cc1 [Compound 35] |  | > 100 µM | > 100 µM |  | > 100 µM | > 100 µM
3 | CN1C[C@H](c2ccccc2Cl)[C@]2(NC(=S)N(c3ccc(Cl)cc3)C2=O)[C@]12C(=O)Nc1ccc(Cl)cc12 (racemic) [Compound 36] | > 100 µM | > 100 µM | > 100 µM | > 100 µM |  | 
4 | CN1C[C@H](c2ccc(Cl)cc2)[C@]2(NC(=S)N(c3ccccc3)C2=O)[C@]12C(=O)Nc1ccc(Cl)cc12 (racemic) [Compound 12] | > 100 µM | > 100 µM | > 100 µM | > 100 µM |  | 
5 | CN1C[C@H](c2ccccc2Cl)[C@]2(NC(=S)N(c3ccccc3)C2=O)[C@]12C(=O)Nc1ccccc12 (racemic) [Compound 9] | > 100 µM | 21.7 ± 5.8 µM | 23.1 ± 6.6 µM | > 100 µM |  | 
6 | CN1C[C@H](c2ccc(Cl)c(Cl)c2)[C@]2(NC(=S)N(c3ccccc3)C2=O)[C@]12C(=O)Nc1ccc(Br)cc12 (racemic) [Compound 16] | > 100 µM | 7.6 ± 1.6 µM | 8.8 ± 3.5 µM | > 100 µM |  | 
7 | CC(c1ccccc1)N1C(=O)C2(NC1=S)C(c1ccc(Cl)cc1)CN(C)C21C(=O)Nc2ccc(Cl)cc21 (mixture of isomers) [Compound 66] | > 100 µM | > 100 µM | > 100 µM | > 100 µM |  | 
8 | COc1ccc([C@H]2CN(C)[C@@]3(C(=O)Nc4ccccc43)[C@@]23NC(=S)N(c2ccc(F)c(Cl)c2)C3=O)cc1OC (racemic) [Compound 44] | 8.6 ± 1.8 µM | 35 ± 16.2 µM | > 100 µM | 10.2 ± 2.3 µM |  | 
9 | CN1C[C@H](c2cccc(C=O)c2)[C@]2(NC(=S)N(c3ccccc3)C2=O)[C@]12C(=O)Nc1ccc(Cl)cc12 (racemic) [Compound 24] | > 100 µM | > 100 µM | > 100 µM | > 100 µM |  | 
10 | CCOc1ccc(N2C(=O)[C@]3(NC2=S)[C@@H](c2ccc(F)cc2)CN(C)[C@@]32C(=O)Nc3ccccc32)cc1 (racemic) [Compound 30] | > 100 µM | > 100 µM | > 100 µM | > 100 µM |  | 
11 | CCOc1ccc([C@H]2CN(C)[C@@]3(C(=O)Nc4ccc(Br)cc43)[C@@]23NC(=S)N(c2ccc(F)cc2)C3=O)cc1 (racemic) [Compound 61] | > 100 µM |  |  | > 100 µM |  | 
12 | CN1C[C@H](c2cccc(Cl)c2)[C@]2(NC(=S)N(c3ccccc3)C2=O)[C@]12C(=O)Nc1ccc(Cl)cc12 (racemic) [Compound 23] | > 100 µM | 50.7 ± 8.9 µM | 50.7 ± 12.6 µM | > 100 µM |  | 
13 | CN1CC(c2ccccc2Cl)C2(NC(=S)N(c3ccc(O)cc3)C2=O)C12C(=O)Nc1ccc(Br)cc12 (centres unmarked) [Compound 54, 1-(4-hydroxyphenyl)-4’-(2-chlorophenyl)-1’-methyl-5’’’-bromo-2-thiooxodispiro[imidazolidine-4,3’-pyrrolidine-2’,3”-indoline]-2”,5-dione] | 9.5 ± 2.5 µM | > 100 µM | > 100 µM | 20 ± 8.4 µM |  | 
14 | CCOc1ccc(N2C(=O)[C@]3(NC2=S)[C@@H](c2ccc(Cl)cc2)CN(C)[C@@]32C(=O)Nc3ccccc32)cc1 (racemic) [Compound 28] | > 100 µM | > 100 µM | > 100 µM | > 100 µM |  | 
15 | CN1C[C@H](c2ccc(F)cc2)[C@]2(NC(=S)N(c3ccc(Cl)cc3)C2=O)[C@]12C(=O)Nc1ccccc12 (racemic) [Compound 38] | > 100 µM | > 100 µM | > 100 µM | > 100 µM |  | 
16 | CCOc1ccc(N2C(=O)[C@]3(NC2=S)[C@@H](c2ccc(F)cc2)CN(C)[C@@]32C(=O)Nc3ccc(Br)cc32)cc1 (racemic) [Compound 31] | > 100 µM | > 100 µM | > 100 µM | > 100 µM |  | 
17 | CN1C[C@H](c2ccc(Cl)cc2)[C@]2(NC(=S)N(c3ccc(O)cc3)C2=O)[C@]12C(=O)Nc1ccc(Cl)cc12 (racemic) [Compound 52] | > 100 µM | > 100 µM | > 100 µM | > 100 µM |  | 
18 | CN1C[C@H](c2ccccc2Cl)[C@]2(NC(=S)N(c3ccccc3)C2=O)[C@]12C(=O)Nc1ccc(Br)cc12 (racemic) [Compound 10] | > 100 µM |  |  | > 100 µM |  | 

Row | Compound | IC50 (LNCaP cells) | IC50 (HCT^wt cells) | IC50 (HCT^−/− cells) | IC50 (PC3 cells; 48 h) | IC50 (LNCaP cells; Homo sapiens, LNCaP) | IC50 (PC3 cells; Homo sapiens, PC-3, 48 h)
19 | CN1C[C@H](c2cccc(Cl)c2)[C@]2(NC(=S)N(c3ccccc3)C2=O)[C@]12C(=O)Nc1ccccc12 (racemic) [Compound 14] | > 100 µM |  |  | > 100 µM |  | 
20 | CN1C[C@H](C2CCCCC2)[C@]2(NC(=S)N(c3ccccc3)C2=O)[C@]12C(=O)Nc1ccc(Br)cc12 (racemic) [Compound 26] | > 100 µM |  |  | > 100 µM |  | 
21 | CN1C[C@H](c2ccccn2)[C@]2(NC(=S)N(c3ccccc3)C2=O)[C@]12C(=O)Nc1ccc(Br)cc12 (racemic) [Compound 17] | > 100 µM | 5.6 ± 2.3 µM | 7.6 ± 3.2 µM | > 100 µM |  | 
22 | CN1C[C@H](c2ccncc2)[C@]2(NC(=S)N(c3ccccc3)C2=O)[C@]12C(=O)Nc1ccccc12 (racemic) [Compound 19] | > 100 µM | > 100 µM | > 100 µM | > 100 µM |  | 
23 | COc1ccc([C@H]2CN(C)[C@@]3(C(=O)Nc4ccc(Br)cc43)[C@@]23NC(=S)N(c2ccc(F)c(Cl)c2)C3=O)cc1OC (racemic) [Compound 45] | > 100 µM |  |  | > 100 µM |  | 
24 | CN1C[C@H](c2ccccc2Cl)[C@]2(NC(=S)N(c3ccccc3)C2=O)[C@]12C(=O)Nc1ccc(Cl)cc12 (racemic) [Compound 11] | > 100 µM | > 100 µM | > 100 µM | > 100 µM |  | 
25 | CN1C[C@H](c2ccc(Cl)cc2)[C@]2(NC(=S)N(c3ccc(F)c(Cl)c3)C2=O)[C@]12C(=O)Nc1ccc(Cl)cc12 (racemic) [Compound 42] | > 100 µM | > 100 µM | > 100 µM | > 100 µM |  | 
26 | COc1ccc([C@H]2CN(C)[C@@]3(C(=O)Nc4ccc(Cl)cc43)[C@@]23NC(=S)N(c2ccc(O)cc2)C3=O)cc1OC (racemic) [Compound 57] | 17 ± 1 µM | > 100 µM | > 100 µM | 20 ± 6.9 µM |  | 
27 | COc1ccc(C2CN(C)C3(C(=O)Nc4ccc(Cl)cc43)C23NC(=S)N(c2ccc(Cl)cc2)C3=O)cc1OC (centres unmarked) [Compound 39, 1-(4-chlorophenyl)-4’-(3,4-dimethoxyphenyl)-1’-methyl-5’’’-chloro-2-thiooxodispiro[imidazolidine-4,3’-pyrrolidine-2’,3”-indoline]-2”,5-dione] | > 100 µM | > 100 µM | > 100 µM | > 100 µM |  | 
28 | C=CCN1C(=O)[C@]2(NC1=S)[C@@H](c1cccc(Cl)c1)CN(C)[C@@]21C(=O)Nc2ccccc21 (racemic) [Compound 68] | > 50 µM |  |  | > 50 µM |  | 
29 | COc1ccc(N2C(=O)[C@]3(NC2=S)[C@@H](c2cccc(Cl)c2)CN(C)[C@@]32C(=O)Nc3ccc(Br)cc32)cc1 (racemic) [Compound 33] | > 100 µM | > 100 µM | > 100 µM | > 100 µM |  | 
30 | C#CCOc1ccc([C@H]2CN(C)[C@@]3(C(=O)Nc4ccc(Br)cc43)[C@@]23NC(=S)N(c2ccc(OCC)cc2)C3=O)cc1 (racemic) [Compound 34] | > 100 µM | > 100 µM | > 100 µM | > 100 µM |  | 
31 | CN1C[C@H](c2ccccn2)[C@]2(NC(=S)N(c3ccccc3)C2=O)[C@]12C(=O)Nc1ccc(Cl)cc12 (racemic) [Compound 18] | 2.1 ± 0.3 µM | 60.1 ± 8.6 µM | > 100 µM | 8.2 ± 3.5 µM |  | 
32 | CN1C[C@H](C2CCCCC2)[C@]2(NC(=S)N(c3ccccc3)C2=O)[C@]12C(=O)Nc1ccccc12 (racemic) [Compound 25] | > 100 µM |  |  | > 100 µM |  | 
33 | COc1ccc(N2C(=O)[C@]3(NC2=S)[C@@H](c2cccc(Cl)c2)CN(C)[C@@]32C(=O)Nc3ccccc32)cc1Cl (racemic) [Compound 58] | > 100 µM |  |  | > 100 µM |  | 
34 | C=CCN1C(=O)[C@]2(NC1=S)[C@@H](c1ccccn1)CN(C)[C@@]21C(=O)Nc2ccccc21 (racemic) [Compound 67] | > 50 µM |  |  | > 50 µM |  | 
35 | COc1ccc(N2C(=O)[C@]3(NC2=S)[C@@H](c2cccc(Cl)c2)CN(C)[C@@]32C(=O)Nc3ccc(Br)cc32)cc1Cl (racemic) [Compound 59] | > 50 µM |  |  | > 50 µM |  | 
36 | CCOc1ccc([C@H]2CN(C)[C@@]3(C(=O)Nc4ccccc43)[C@@]23NC(=S)N(c2ccc(F)cc2)C3=O)cc1 (racemic) [Compound 60] | > 100 µM |  |  | > 100 µM |  | 
